The record followed here is ChEMBL document CHEMBL6096649, “Enantiomeric C-6 fluorinated swainsonine derivatives as highly selective and potent inhibitors of α-mannosidase and α-l-rhamnosidase: Design, synthesis and structure-activity relationship study” (Eur J Med Chem, 2025).

The species named for assay [1] is Rattus norvegicus. The experiment in a line: Inhibition of rat intestinal Alpha-glucosidase using p-nitrophenyl glycoside as substrate assessed as p-nitrophenol release at 1000 uM by spectrometric analysis relative to control.
Assay [2] is filed under the species Bos taurus. The experiment in a line: Inhibition of bovine liver beta-glucuronidase using p-nitrophenyl glycoside as substrate assessed as release of p-nitrophenol at 1000 uM by spectrometric analysis relative to control.
Assay [3] has as its target Alpha-galactosidase (Coffea arabica) (UniProt Q42656). The experiment in a line: Inhibition of coffee bean alpha-galactosidase using p-nitrophenyl glycoside as substrate assessed as release of p-nitrophenol at 1000 uM by spectrometric analysis relative to control.
The subject of assay [4] is Aspergillus niger. The experiment in a line: Inhibition of Aspergillus niger amyloglucosidase using p-nitrophenyl glycoside as substrate assessed as release of p-nitrophenol at 1000 uM by spectrometric analysis relative to control.
Assay [5] deals with Oryza sativa. The experiment in a line: Inhibition of rice Alpha-glucosidase using p-nitrophenyl glycoside as substrate assessed as p-nitrophenol release at 1000 uM by spectrometric analysis relative to control.
The species named for assay [6] is Bos taurus. The experiment in a line: Inhibition of bovine liver beta-glucosidase using p-nitrophenyl glycoside as substrate assessed as release of p-nitrophenol at 1000 uM by spectrometric analysis relative to control.
Assay [7] is filed under the species Sus scrofa. The experiment in a line: Inhibition of porcine kidney Alpha alpha-trehalase using p-nitrophenyl glycoside as substrate assessed as release of p-nitrophenol at 1000 uM by spectrometric analysis relative to control.
Assay [8] addresses Alpha-glucosidase (Saccharomyces cerevisiae S288c) (UniProt P53341+P38158+P07265). The experiment in a line: Inhibition of yeast Alpha-glucosidase using p-nitrophenyl glycoside as substrate assessed as p-nitrophenol release at 1000 uM by spectrometric analysis relative to control. Format: protein assay.
Assay [9] has as its target T1, Alpha-mannosidase (Canavalia ensiformis) (UniProt C0HJB3).
T1 sequence (whole entry): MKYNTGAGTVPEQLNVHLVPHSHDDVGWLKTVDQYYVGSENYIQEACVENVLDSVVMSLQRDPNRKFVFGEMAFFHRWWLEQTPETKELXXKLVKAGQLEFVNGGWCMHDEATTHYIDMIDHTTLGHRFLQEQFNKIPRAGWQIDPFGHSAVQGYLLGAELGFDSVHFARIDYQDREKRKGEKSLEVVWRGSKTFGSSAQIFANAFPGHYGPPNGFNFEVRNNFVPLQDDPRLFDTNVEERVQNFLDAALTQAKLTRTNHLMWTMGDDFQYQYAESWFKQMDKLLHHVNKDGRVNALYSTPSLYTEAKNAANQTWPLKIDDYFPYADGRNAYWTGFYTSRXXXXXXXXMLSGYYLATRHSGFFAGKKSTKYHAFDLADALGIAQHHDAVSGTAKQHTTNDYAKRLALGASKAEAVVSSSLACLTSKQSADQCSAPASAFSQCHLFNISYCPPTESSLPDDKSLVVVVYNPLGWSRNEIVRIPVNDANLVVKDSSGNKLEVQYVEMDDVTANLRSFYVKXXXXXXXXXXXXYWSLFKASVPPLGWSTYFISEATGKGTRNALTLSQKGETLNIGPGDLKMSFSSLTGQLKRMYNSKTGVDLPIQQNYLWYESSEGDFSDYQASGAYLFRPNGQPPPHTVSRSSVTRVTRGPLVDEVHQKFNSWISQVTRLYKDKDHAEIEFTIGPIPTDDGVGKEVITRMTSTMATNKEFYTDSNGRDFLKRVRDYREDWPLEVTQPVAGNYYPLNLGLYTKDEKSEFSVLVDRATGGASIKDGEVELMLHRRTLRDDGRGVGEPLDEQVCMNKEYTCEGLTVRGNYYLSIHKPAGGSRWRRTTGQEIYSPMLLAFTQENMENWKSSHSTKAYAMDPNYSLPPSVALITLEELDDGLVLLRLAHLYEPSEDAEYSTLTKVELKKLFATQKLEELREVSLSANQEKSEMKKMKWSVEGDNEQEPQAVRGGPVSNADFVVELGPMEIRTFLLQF
The experiment in a line: Inhibition of jack bean alpha-mannosidase using p-nitrophenyl glycoside as substrate assessed as release of p-nitrophenol at 1000 uM by spectrometric analysis relative to control.

For assay [10], the system named is Helix pomatia. The experiment in a line: Inhibition of snail beta-mannosidase using p-nitrophenyl glycoside as substrate assessed as release of p-nitrophenol at 1000 uM by spectrometric analysis relative to control.
Assay [11] concerns Escherichia coli. The experiment in a line: Inhibition of Escherichia coli beta-glucuronidase using p-nitrophenyl glycoside as substrate assessed as release of p-nitrophenol at 1000 uM by spectrometric analysis relative to control.
Assay [12] concerns Prunus dulcis. The experiment in a line: Inhibition of almond Beta-glucosidase using p-nitrophenyl glycoside as substrate assessed as release of p-nitrophenol at 1000 uM by spectrometric analysis relative to control.
The species entered for assay [13] is Homo sapiens. The experiment in a line: Inhibition of human lysosome beta-glucosidase using p-nitrophenyl glycoside as substrate assessed as release of p-nitrophenol at 1000 uM by spectrometric analysis relative to control.
For assay [14], the species on record is Bos taurus. The experiment in a line: Inhibition of bovine liver beta-galactosidase using p-nitrophenyl glycoside as substrate assessed as release of p-nitrophenol at 1000 uM by spectrometric analysis relative to control.
The target of assay [15] is Alpha glucosidase (Homo sapiens) (UniProt O43451+P10253+P14410+Q2M2H8). The experiment in a line: Inhibition of human Alpha-glucosidase using p-nitrophenyl glycoside as substrate assessed as p-nitrophenol release at 1000 uM by spectrometric analysis relative to control. It counts as protein assay.
Assay [16] concerns Penicillium decumbens. The experiment in a line: Inhibition of Penicillium decumbens alpha-L-rhamnosidase using p-nitrophenyl glycoside as substrate assessed as release of p-nitrophenol at 1000 uM by spectrometric analysis relative to control.
The nature of assay [17]: Inhibition of human liver Alpha-mannosidase.

Sequence of Alpha-galactosidase (Coffea arabica) (Q42656 16-378 limits assumed): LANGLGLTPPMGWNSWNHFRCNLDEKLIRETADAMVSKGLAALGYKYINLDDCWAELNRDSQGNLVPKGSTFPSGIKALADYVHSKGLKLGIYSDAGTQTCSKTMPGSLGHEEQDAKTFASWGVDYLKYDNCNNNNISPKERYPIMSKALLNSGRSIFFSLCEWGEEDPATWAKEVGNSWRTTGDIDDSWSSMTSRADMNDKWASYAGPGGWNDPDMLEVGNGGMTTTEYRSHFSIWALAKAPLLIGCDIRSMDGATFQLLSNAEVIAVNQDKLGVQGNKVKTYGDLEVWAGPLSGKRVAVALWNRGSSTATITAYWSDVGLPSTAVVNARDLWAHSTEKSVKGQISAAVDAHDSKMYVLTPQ

On to `O[C@@H]1[C@@H]2[C@H](O)CC(F)(F)CN2C[C@@H]1O`, for which the inhibition worked out at 2.7% in assay [1]; 18.8% in [2]; 0% in [3]; 0.1% in assay [4]; 0% in [5]; 10.2% in [6]. Also, the inhibition in assay [7] was found to be 1.5%; in assay [8] it was 0%; in assay [9], 44.8%; in assay [10], 0%; in assay [11] it was 0%; in assay [12], 0%. Besides, the inhibition was determined as 0.7% in [13], 0.8% in [14], 2.2% in assay [15] and 63% in assay [16].
For the compound `OC[C@@H]1[C@@H](O)[C@@H](O)[C@H]2[C@H](O)CCCN21`, in assay [17], the IC50 worked out at 1.2 µM.
Same read-out and setting: the same measure for `O=C(OC[C@H](NC[C@H]1OC[C@H](O)[C@@H]1O)c1ccccc1)c1ccc(Br)cc1`: 89 µM.
On to `O[C@@H]1[C@@H]2[C@H](O)C[C@@H](F)CN2C[C@@H]1O`, for which the inhibition in assay [1] is 11.6%; in [2] it was 0.1%; in assay [3], 0%; in [4] it was 11.4%; in assay [5], 23.5%; in [6], 9%. Further, the inhibition came to 11.7% in assay [7]; 4.5% in assay [8]; 18.8% in [9]; 1.7% in assay [10]; 0% in assay [11]; 4.7% in assay [12]. For the same compound, the inhibition was 3.4% in [13], 15% in [14], 0% in assay [15] and 125% in [16].
In assay [17], `OC[C@H](NC[C@H]1OC[C@H](O)[C@@H]1O)c1ccccc1` came in with an IC50 of 4.2 µM.
Consider `O[C@@H]1[C@@H]2[C@@H](O)CC(F)(F)CN2C[C@@H]1O`, for which the inhibition in assay [1] was found to be 0%; in [2], 14.1%; in assay [3], 0%; in assay [4] it was 10.9%; in assay [5] it was 0%; in assay [6], 38.5%. Besides, the inhibition in assay [7] stood at 28.4%; in [8], 0%; in [9], 28.2%; in assay [10] it was 0%; in assay [11], 0%; in [12], 10.5%. Also, the inhibition in assay [13] turned out to be 0%; in [15], 0%; in assay [16] it was 2.2%.
In [17], `OC[C@H]1[C@@H](O)[C@@H](O)CN1Cc1ccc(Br)cc1` displayed an IC50 of 0.09 µM.
Regarding `O[C@@H]1[C@H](O)C[S+]2CCCS[C@H]12` (some centres not stated), in [17], half-maximal inhibition (IC50) was put at 97 µM.
Consider `O[C@@H]1[C@@H]2[C@@H](O)C[C@H](F)CN2C[C@@H]1O`, for which the inhibition in assay [1] was determined as 18.3%; in assay [2], 12.5%; in assay [3] it was 0%; in assay [4], 17.7%; in [5] it was 0%; in assay [6] it was 16%. Also, the inhibition amounted to 4.5% in assay [8]; 3.9% in assay [9]; 2.5% in [10]; 9.3% in assay [11]; 0% in [12]; 9.6% in assay [13]. The inhibition in assay [14] stood at 11.7%; in [15], 5.1%; in [16] it was 0.43%.
For the compound `O[C@@H]1[C@@H]2[C@H](O)CCCN2C[C@@H]1O`, the inhibition came out at 0% in assay [1]; 8.8% in assay [2]; 0% in [3]; 11.4% in assay [4]; 0% in assay [5]; 0% in assay [6]. Moreover, the inhibition in assay [7] was determined as 0%; in assay [8], 3.4%; in [9], 2.8%; in assay [10], 11.7%; in [11], 0%; in [12], 1%. Further, the inhibition came to 3.1% in [13], 0% in [14], 0% in [15] and 58% in assay [16].
Take `O[C@@H]1[C@@H]2[C@H](O)C[C@H](F)CN2C[C@@H]1O`: the inhibition was 0% in [3]; 10.9% in assay [4]; 0% in assay [5]; 38.5% in [6]; 0.5% in assay [7]; 18% in [8]. In addition, the inhibition in assay [9] came out at 0%; in assay [10] it was 0%; in [11] it was 28.9%; in assay [12], 3.2%; in assay [14], 41.7%; in assay [15], 37.6%. For the same compound, the inhibition in assay [16] is 52%.
`OC[C@H]1[C@@H](O)[C@@H](O)CN1Cc1ccc(I)cc1` had a concentration for half-maximal inhibition (IC50) in [17] of 0.09 µM.
For the compound `O[C@@H]1[C@@H]2[C@@H](O)C[C@@H](F)CN2C[C@@H]1O`, the inhibition in [1] is 47.3%; in assay [3], 0%; in assay [4], 2.3%; in assay [5] it was 27.3%; in assay [6], 25.6%; in assay [7], 36%. Moreover, the inhibition is 6.2% in [8]; 1.6% in [9]; 1.7% in assay [10]; 9.3% in assay [11]; 0% in [12]; 43.5% in [13]. In addition, the inhibition in [14] amounted to 21.7%; in [15], 15.6%; in assay [16] it was 5.2%.
In [17], `OC[C@H]1[C@@H](O)[C@@H](O)CN1Cc1ccccc1` had an IC50 of 0.09 µM.
Compound `NC[C@@H]1[C@@H](O)[C@@H](O)[C@H]2[C@H](O)CCCN21` came in with a Ki in assay [17] of 0.097 µM.
In assay [17], `OC[C@@H](O)[C@H]1NC[C@@H](O)[C@H]1O` gave an IC50 of 3.9 µM.
Same read-out and setting: the same measure for `CC(=O)NCCCC[C@H]1C[C@@H](O)[C@@H]2[C@H](O)[C@H](O)CN2C1`: 51 µM; for `Cc1ccc(C(=O)C[C@H]2CC[C@@H](O)[C@@H]3[C@H](O)[C@H](O)CN23)cc1`: 29 µM.
Turning to `O[C@H]1[C@H]2[C@@H](O)C[C@H](F)CN2C[C@H]1O`, the inhibition in assay [1] turned out to be 0%; in assay [2], 3.1%; in assay [3] it was 0%; in assay [4], 2.3%; in [5] it was 15.9%; in assay [6] it was 3.8%. Further, the inhibition in assay [8] worked out at 3.4%; in assay [9], 14.9%; in assay [10], 21.7%; in assay [11], 0%; in [12], 3.2%; in assay [13], 7.1%. Moreover, the inhibition amounted to 0% in [14], 3% in assay [15] and 11.3% in [16].
